The record followed here is PMC7497988 (2020).

Assay [1] deals with (AT)2 (DNA, duplex) CGCGATATCGCG
Description: absorption and fluorescence titration. To be noted: Na+ (10 mM sodium phosphate, 10 mM NaCl); buffer A pH 7.5, 25 °C; minor groove at 1:1, intercalation at low [DNA]/[TC].

Assay [2] concerns A3T3 (DNA, duplex) CGCGAAATTTCGCG
Description: ITC. The conditions noted are these: Na+ (10 mM sodium phosphate, 10 mM NaCl); buffer A pH 7.5, 25 °C; TC into 40 μM A3T3; single site model.

In assay [3] the test system is CG (DNA, duplex) CGCGCGCGCGCG
Nature of the assay: absorption titration, NMR line broadening. To be noted: Na+ (10 mM sodium phosphate, 10 mM NaCl); buffer A pH 7.5, 25 °C; intercalation only, almost no fluorescence enhancement.

In assay [4] the test system is A2T2 (DNA, duplex) CGCGAATTCGCG
Nature of the assay: absorption, fluorescence and NMR titration. The conditions noted are these: Na+ (10 mM sodium phosphate, 10 mM NaCl); buffer A pH 7.5, 25 °C; minor groove at 1:1, intercalation at low [DNA]/[TC].

For assay [5], the system named is t-(AT)2 (DNA, duplex) ATATCGCGATAT
Description: absorption and fluorescence titration. To be noted: Na+ (10 mM sodium phosphate, 10 mM NaCl); buffer A pH 7.5, 25 °C; mixed intercalation and incomplete groove binding.

In assay [6] the test system is AT (DNA, duplex) CGCGATCGCG
Nature of the assay: absorption and fluorescence titration. The conditions noted are these: Na+ (10 mM sodium phosphate, 10 mM NaCl); buffer A pH 7.5, 25 °C; mixed intercalation and incomplete groove binding.

In the case of `CCN(CC)c1ccc2cc(/C=C/c3sc4ccccc4[n+]3C)c(=O)oc2c1`, the binding entry in assay [1], in assay [3], in assay [4], in assay [5] and in assay [6] was “yes” each time. In assay [2], this compound displayed a Kd of 2.9 µM.

As usually defined, the Kd is the free concentration of one partner at which half of the binding sites on the other are occupied at equilibrium, for simple one-to-one binding. A lower Kd goes with higher affinity.
